Tests used:
Arabidopsis anthers = test: Anthers cultured in vitro with epiBL, unreduced pollen microspores; format: cell-based; conditions: 0.1 μM epiBL on 2% sucrose medium for 24 h
From the text: (§1) Scale bars: 50 μm (FIG. 51A), 20 μm (FIGS. 51B-51E).

[1] = tested on: B. stricta (Drummond's rockcress) ovules; test: Pistil culture factorial experiment with sucrose, glucose, epiBL, DTBA and 5-azaC; format: cell-based, Boechera stricta
From the text: (§2) To address redox instability, pistils were exposed to the antioxidant DTBA, an antioxidant that protects thiol groups in proteins from oxidization. To address bioenergetic stress, pistils were exposed to sugars. Glucose signaling is one of the most ancient and central signaling pathways in animals and plants and is involved in gene expression, primary and secondary metabolism, and regulation of growth and development (98). In Arabidopsis, rates of glycolysis and mitochondrial bioenergetics are sensed by TOR, which then control root meristem activation (18). If sufficient sugar is supplied, TOR should be activated. Active TOR protects BZR1 and other important BR-regulated enzymes from degradation, and this leads to plant growth (25). Factorial experiments were designed to test the effects of sucrose, glucose, epiBL, DTBA and 5-azaC on apomixis induction. These were designed for each of three sexual species, B. stricta, arabidopsis and cowpea. The experiments were performed and ratios of apomeiosis to meiosis were documented.
Both the carbohydrate variable and the other components variable were highly significant (P<0.001). Additionally, three ovules from the sucrose plus epiBL treatment (epiBL in the pretreatment and in the medium) had formed aposporous embryo sacs (AES). Also, two ovules, one from the sucrose-epiBL-epiBL treatment and one from the glucose-DTBA-DTBA treatment, had formed Antennaria-type diplosporous embryo sacs (FIGS. 48A-48H).
(§3) Cytological Analyses. Arabidopsis, Drummond's rockcress and cowpea floral buds were fixed in FAA (v/v: 3.7% formaldehyde, 5% acetic acid, 50% ethanol) for 48 h and cleared in 2:1 benzyl benzoate dibutyl phthalate (BBDP) (80): 1) 70% EtOH, 30 min; 95% EtOH, ≥4 h (2×); 95% EtOH:BBDP (2:1), 2 h; 95% EtOH:BBDP (1:2), 4 h; BBDP, 4 h; BBDP, overnight. Cleared pistils were mounted (up to 16 per slide) and measured from the pedicel base to the top of the stigma. […] DAPI fluorescence was detected with a Zeiss LSM 510 confocal microscope with excitation at 408 nm, dichroic reflector at HFT488 nm and detection at 450-650 nm. […]
Presence of the following ovule characteristics were recorded: MMCs, Antennaria type diplosporous 1-2 nucleate ES, sexual or Taraxacum type diplosporous dyads, sexual tetrads, sexual or Taraxacum type diplosporous 1-2 nucleate ES, AI and AES. Developmental stages for the majority of ovules per pistil were recorded, and pistil lengths for the following stages (125) were recorded: 1-II, ovule meristems protruding from placentae (precedes MMC formation); 2-IV, meiosis; 3-III, vacuole in immature ES beginning to appear; 4-VI, nuclear divisions in endosperm underway. […]

B. stricta ovules [2] = test: In vivo floral dip in epiBL solution, dyad formation; conditions: flower buds dipped 3 h in 10 μmol L−1 epiBL; controls 7%
Experimental: (§4) FIG. 40 Frequencies of B. stricta ovules (dyads and tetrads) that were undergoing dyad formation (sexual or diplosporous) at the end of pistil treatment as affected by i) a 3 h in vivo floral dip in solutions containing epibrassinolide (epiBL) or ii) culturing of pistils in epiBL-containing media with in vitro culture of pistils initiated when pistils were in the 1-I or the 2-III to 2-IV stages. Numbers of correctly-staged ovules (dyads plus tetrads) per data point averaged 53 and ranged from 27-82.
(§5) epiBL is the naturally occurring and most biologically active form of BR. Applications of epiBL to pistils of sexual B. stricta, in vivo or in vitro, caused MMC to abort meiosis and instead produce dyads (FIG. 40). […] This induced 31% dyad formation, compared to 7% for the controls (a frequency often observed in sexual plants where they represent an intermediate stage of sexual meiosis). A similar dyad induction frequency (29%) was obtained by culturing 1-I to 2-II staged B. stricta pistils on a 0.1 μmol L−1 epiBL medium for 2 d (FIG. 40).

B. stricta ovules [3] = test: In vitro culture of pistils on epiBL-containing medium, dyad formation; format: cell-based
Experimental: as §4, §5

Arabidopsis embryo sacs = test: Induction of parthenogenesis and autonomous endosperm formation in pistils; format: cell-based; conditions: 2 μM BR or 50 mM glucose prior to central cell callose deposition
Experimental: as §1
FIG. 52 Parthenogenesis in putatively diploid Arabidopsis embryo sacs induced by treatment of pistils in emasculated flowers with 2 μM BR or 50 mM glucose. To prevent fertilization, stigmas of pistils were clipped while anthers were immature. These pistils were also treated premeiotically with BR and glucose.
Functional apomixis requires not only apomeiosis but also parthenogenesis and, in plants, endosperm formation.

Arabidopsis ovules [4] = test: Topical application of BR or glucose to intact pistils, apomeiosis induction; format: in vivo, Arabidopsis thaliana
Experimental: Most of the functional megaspores from these treatments originated by Taraxacum-type diplospory (FIG. 42) with frequent subepidermal layer of cells with or without a parietal cell. A few cases of Antennaria-type diplospory were also observed (FIG. 43).
as §3
Presence of the following ovule characteristics were recorded: MMCs, Antennaria type diplosporous 1-2 nucleate ES, sexual or Taraxacum type diplosporous dyads, sexual tetrads, sexual or Taraxacum type diplosporous 1-2 nucleate ES, AI and AES. […]
For topical applications, sepals of floral buds were separated, and pistil lengths were measured using a dissecting microscope. […]

Arabidopsis ovules [5] = test: Pistil culture experiments with 5-azaC, BR (epiBL), DTBA, H2O2 and sugars, meiosis to apomeiosis; format: cell-based, Arabidopsis thaliana; conditions: BR alone
From the text: as §2
Two factorial experiments were conducted using immature arabidopsis pistils. In the first experiment, no 5-azaC, 5-azaC in the pretreatment only, or 5-azaC in both the pretreatment and the tissue culture medium were tested.
Cytological Analyses. Arabidopsis, Drummond's rockcress and cowpea floral buds were fixed in FAA (v/v: 3.7% formaldehyde, 5% acetic acid, 50% ethanol) for 48 h and cleared in 2:1 benzyl benzoate dibutyl phthalate (BBDP) (80): 1) 70% EtOH, 30 min; 95% EtOH, ≥4 h (2×); 95% EtOH:BBDP (2:1), 2 h; 95% EtOH:BBDP (1:2), 4 h; BBDP, 4 h; BBDP, overnight. Cleared pistils were mounted (up to 16 per slide) and measured from the pedicel base to the top of the stigma. Ovule development stages were studied using a BX53 microscope equipped with differential interference contrast optics and a MicroFire 599809 camera (Olympus, Center Valley, Pa., USA). For chromosome staining, pistils were soaked in 95% ethanol that contained 0.1 mg L^−1 4′,6-diamidino-2-phenylindole (DAPI). Callose was stained by soaking DAPI stained pistils in aqueous aniline blue (Millipore Sigma, Darmstadt, Germany) (124). DAPI fluorescence was detected with a Zeiss LSM 510 confocal microscope with excitation at 408 nm, dichroic reflector at HFT488 nm and detection at 450-650 nm. Callose was distinguished from DAPI by detection at 550-650 nm.
Presence of the following ovule characteristics were recorded: MMCs, Antennaria type diplosporous 1-2 nucleate ES, sexual or Taraxacum type diplosporous dyads, sexual tetrads, sexual or Taraxacum type diplosporous 1-2 nucleate ES, AI and AES. Developmental stages for the majority of ovules per pistil were recorded, and pistil lengths for the following stages (125) were recorded: 1-II, ovule meristems protruding from placentae (precedes MMC formation); 2-IV, meiosis; 3-III, vacuole in immature ES beginning to appear; 4-VI, nuclear divisions in endosperm underway. To determine average timing of meiosis onset, pistils primarily containing premeiotic (2-III) ovules were located under low light conditions 1 h before the lights came on in the morning. Corresponding sepals were marked with a small point permanent marker. Pistils were then randomly harvested for analysis when the lights came on and 3 h thereafter.
Pistils were aseptically excised, but not disinfested, at the early pre-MMC to MMC stages and incubated in vitro. The basal culture medium for arabidopsis and Drummond's rockcress was MS (126) (Caisson Laboratories, Inc., Smithfield, UT USA) with 20 g L^−1 sucrose or glucose and solidified with 1.45 g L^−1 Phytogel (MilliporeSigma).

In the case of `CC(C)[C@@H](C)[C@@H](O)[C@H](O)[C@@H](C)[C@H]1CC[C@H]2[C@@H]3COC(=O)[C@H]4C[C@H](O)[C@H](O)C[C@]4(C)[C@H]3CC[C@]12C` [epiBL, epibrassinolide], the unreduced pollen microspores (Arabidopsis anthers) is reported as “Unreduced pollen dyads of microspores”, the “number of ovules that formed aposporous embryo sacs (AES)” value ([1]; sucrose plus epiBL, epiBL in the pretreatment and in the medium) is reported as “three” and the “number of ovules that formed Antennaria-type diplosporous embryo sacs” value ([1]; sucrose-epiBL-epiBL treatment) is reported as “one”. For the same compound, the dyad formation (B. stricta ovules [2]) was 31%, the dyad induction frequency (B. stricta ovules [3]; 1-I to 2-II staged pistils on 0.1 μmol L−1 epiBL medium for 2 d) was 29% and the “unreduced embryo sacs forming from epiBL-induced dyads” value (B. stricta ovules [3]; epiBL treatments) was “only rarely observed”. For the same compound, the “ratios of observed dyads” value (B. stricta ovules [3]; epiBL treatments (in vivo or in vitro)) was 30%, the “callose deposition, parthenogenesis and autonomous endosperm formation” value (Arabidopsis embryo sacs) was “prevented stress-associated callose deposition and activated parthenogenesis and autonomous endosperm formation” and the apomeiotic dyad formation (Arabidopsis ovules [4]; intact pistils treated with BR or glucose solutions (2 μM BR or 50 mM glucose)) was “induced high frequency apomeiotic dyad formation”. For the same compound, the Taraxacum-type diplospory induction (Arabidopsis ovules [4]; topical applications 24 h before or immediately before meiosis) was “induced Taraxacum-type diplospory”, the AES formation (Arabidopsis ovules [5]) was “Low levels” and the “ovules with meiosis stopped, MMC undergoing Taraxacum type dyad or ES formation” value (Arabidopsis ovules [5]) was 45%.

— patent US11820994B2, “Methods of inducing apomictic or sexual reproduction” (priority 2018, dated 2023)
